# In US6541463B1, “Inhibitors of type 5 and type 3 17β-hydroxysteroid dehydrogenase and methods for their use” (Endorecherche, Inc., priority 1998, dated 2003):
# Where two headings read alike, the source gives them in different places.
# Target: T1, glucocorticoid receptor (Rattus norvegicus, UniProt P06536)
# T1 construct: from tissue; host or cells: liver cytosol of male Sprague-Dawley rats
# T1 sequence (P06536 1-795): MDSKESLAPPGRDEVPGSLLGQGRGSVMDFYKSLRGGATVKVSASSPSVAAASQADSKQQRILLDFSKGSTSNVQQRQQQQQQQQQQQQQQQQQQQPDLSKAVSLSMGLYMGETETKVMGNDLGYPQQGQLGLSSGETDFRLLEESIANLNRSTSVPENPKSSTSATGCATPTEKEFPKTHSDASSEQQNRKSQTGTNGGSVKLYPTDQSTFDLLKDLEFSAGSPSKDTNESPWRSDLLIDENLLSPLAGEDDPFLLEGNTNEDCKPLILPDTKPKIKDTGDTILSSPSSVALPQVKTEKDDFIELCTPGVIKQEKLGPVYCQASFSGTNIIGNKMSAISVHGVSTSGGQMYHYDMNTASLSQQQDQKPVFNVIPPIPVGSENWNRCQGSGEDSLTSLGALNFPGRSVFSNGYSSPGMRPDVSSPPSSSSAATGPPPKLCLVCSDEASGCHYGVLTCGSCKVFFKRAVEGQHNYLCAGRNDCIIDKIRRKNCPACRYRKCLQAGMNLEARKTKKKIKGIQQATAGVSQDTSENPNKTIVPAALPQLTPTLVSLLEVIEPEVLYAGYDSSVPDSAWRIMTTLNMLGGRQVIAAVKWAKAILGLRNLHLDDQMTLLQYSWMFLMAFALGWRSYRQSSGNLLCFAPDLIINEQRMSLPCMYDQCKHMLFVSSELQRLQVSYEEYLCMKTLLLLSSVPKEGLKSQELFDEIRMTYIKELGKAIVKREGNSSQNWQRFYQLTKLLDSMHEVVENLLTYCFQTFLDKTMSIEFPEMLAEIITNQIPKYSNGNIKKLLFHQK
# Assay: Glucocorticoid receptor assay: inhibition of [3H]-dexamethasone binding, liver cytosol
# Conditions: for inhibition at 1 µM: read-out: % Inhibition Glucocorticold Receptor E^−6; for inhibition at 0.01 µM: read-out: % Inhibition Glucocorticold Receptor E^−8
# Description: The manner in which the percentage of inhibition is determined is described in “Other Tests; F-Glucocorticoid Receptor Assay”.
# [6,7-^3H(N)]-Dexamethasone (39 Ci/mmol) was purchased from New England Nuclear (Lachine, Québec, Canada) while unlabeled dexametasone was obtained from Steraloids (Wilton, N.H.). All other chemicals were of analytical grade.
# Stock solutions of the unlabeled steroids were kept at 4° C. in ethanol. The desired steroid solutions were then prepared by appropriate dilution in buffer B (10 mM Tris-HCl, 1.5 mM EDTA, 10 mM α-monothioglycerol, pH 7.4) containing 30% ethanol.
# Male Sprague-Dawley rats weighing 200-300 g were obtained from Charles-River Inc. (St-Constant, Québec, Canada). The rats were killed by cervical dislocation and the liver were rapidly removed, dissected free from adhering tissue and frozen on dry-ice. Tissues were kept at −80° C. until use.
# All procedures were performed at 4° C. Tissues were eminced and homogenized in 10 vol (w/v) of buffer A (25 mM Tris-HCl, 1.5 mM EDTA, 10 mM α-monothioglycerol, 10% glycerol, 10 mM sodium molybdate, pH 7.4) using a Polytron PT-10 homogenizer (Brinkmann Instruments, Canada) at a setting of 5 for two periods of 10 sec, with intervals of 10 sec for cooling. The homogenate was then centrifuged at 105,000×g for 90 min. The supernatant was used immediately for assay.
# Glucocorticoid binding was measured using the dextran-coated charcoal adsorption technique. Incubations were performed at 0-4° C. for 16-18 h using 100 μl of cytosol, 100 μl of [^3H]-Dexamethasone (5 nM final) and 100 μl of unlabeled compounds at the indicated concentrations. Each concentration was done in triplicate. Assay was ended with 300 μl of DCC (2.5% Norit A and 0.25% Dextran T-70 in Buffer B). After 10 min of incubation, tubes were centrifuged at 2,000×g for 10 min. and decanted in vials with 6 ml of BCS liquid scintillation (New England Nuclear, Dupont). The radioactivity was measured in a Beckman counter at a counting efficiency of 35%.
smiles,measurement,setting,value
CC12C=CC(=O)C=C1C=CC1C2CCC2(C)C(=O)C3(CCCCC3)CC12 (stereo not shown) [CS-204],% Inhibition Glucocorticoid Receptor E^−6,E^−6,0%
same,% Inhibition Glucocorticoid Receptor E^−8,E^−8,0%
CC1(C)CCC2(CCC3C4CCc5ccccc5C4CCC32C)OC1=O (stereo not shown) [CS-224],inhibition at 1 µM,"Table 4′, E^−6",5%
same,inhibition at 0.01 µM,"Table 4′, E^−8",1%
CC(=O)O[C@]1(C)C(=O)CCC2C3C=C(C)C4=CC(=O)C=C[C@]4(C)C3CC[C@@]21C (stereo partly shown) [CS-237],% Inhibition Glucocorticoid Receptor E^−6,E^−6,69%
same,% Inhibition Glucocorticoid Receptor E^−8,E^−8,7%
"CSCCOc1ccc2c(c1)CCC1C2CCC2(C)C1CCC21CCCC(=O)O1 [CS-242, 3-Methylthioethyloxy-1,3,5(10)-estratrien-17(R)-spiro-2′-(6′-oxo) Tetrahydropyran]",inhibition at 1 µM,"Table 4′, E^−6",0%
same,inhibition at 0.01 µM,"Table 4′, E^−8",0%
CCC(=O)O[C@]1(C(C)=O)CCC2C3C=C(C)C4=CC(=O)C[C@H](C)[C@]4(C)C3CC[C@@]21C (stereo partly shown) [CS-243],% Inhibition Glucocorticoid Receptor,E^−6,29%
same,% Inhibition Glucocorticoid Receptor,E^−8,0%
CCCC(=O)OC1(C(C)=O)CCC2C3C=C(C)C4=CC(=O)CC(C)C4(C)C3CCC21C (stereo not shown) [CS-245],% Inhibition Glucocorticoid Receptor,E^−6,43%
same,% Inhibition Glucocorticoid Receptor,E^−8,0%
"C[C@]12CCC3c4ccc(O)cc4CCC3C1CC[C@@]21CCCC(=O)O1 (stereo partly drawn) [EM-919, 1,3,5(10)-estratrien-3-ol-17(R)-spiro-2′(6′-oxo)tetrahydropyran]",% Inhibition Glucocorticold Receptor *E^−5,"Table 4′, starred values, E^−5",33* %
same,% Inhibition Glucocorticold Receptor *E^−7,"Table 4′, starred values, E^−7",0* %
"COC(=O)CCCC(=O)O[C@]1(C(C)=O)CC[C@H]2[C@@H]3C=C(C)C4=CC(=O)CC[C@]4(C)[C@H]3CC[C@@]21C [EM-1007, 6-Methyl-4,6-pregnadien-17α-ol-3,20-dione 4′-Carbomethoxybutyrate]",% Inhibition Glucocorticoid Receptor,E^−6,0%
same,% Inhibition Glucocorticoid Receptor,E^−8,0%
CC1CCC2(CCC3C4CCc5ccccc5C4CCC32C)OC1=O (stereo not shown) [EM-1025],inhibition at 1 µM,"Table 4′, E^−6",0%
same,inhibition at 0.01 µM,"Table 4′, E^−8",0%
CCCC(=O)O[C@]1(C)C(=O)CCC2C3C=C(C)C4=CC(=O)CC[C@]4(C)C3CC[C@@]21C (stereo partly shown) [EM-1078],% Inhibition Glucocorticoid Receptor E^−6,E^−6,94%
same,% Inhibition Glucocorticoid Receptor E^−8,E^−8,20%
CCC[C@@H]1CC2C3C=CC4=CC(=O)CC[C@]4(C)C3CC[C@]2(C)C1=O (stereo partly shown) [EM-1097],% Inhibition Glucocorticoid Receptor E^−6,E^−6,0%
same,% Inhibition Glucocorticoid Receptor E^−8,E^−8,0%
CN1C(=O)C=C[C@]2(C)C3CC[C@@]4(C)C(CC[C@@]45CCCC(=O)O5)C3CCC12 (stereo partly shown) [EM-1122-CS],inhibition at 1 µM,"Table 5 column 15, E^−6",0%
same,inhibition at 0.01 µM,"Table 5 column 15, E^−8",0%
"C[C@]12CCC3c4cc([N+](=O)[O-])c(O)cc4CCC3C1CC[C@@]21CCCC(=O)O1 (stereo partly drawn) [EM-1124, 2-Nitro-1,3,5(10)-estraetriene-3-ol-17(R)-spiro-2′-(6′-oxo)tetrahydropyran]",inhibition at 1 µM,"Table 4′, E^−6",1%
same,inhibition at 0.01 µM,"Table 4′, E^−8",1%
CC1(C)CCC2(CCC3C4CCc5cc(O)c([N+](=O)[O-])cc5C4CCC32C)OC1=O (stereo not shown) [EM-1125-CS],inhibition at 1 µM,"Table 4′, E^−6",1%
same,inhibition at 0.01 µM,"Table 4′, E^−8",0%
"CC1CCC2(CCC3C4CCc5cc(O)c([N+](=O)[O-])cc5C4CCC32C)OC1=O [EM-1126, 2-Nitro-1,3,5(10)-estratrien-3-ol-17(R)-spiro-2′-(5′-methyl-6′-oxo)tetrahydropyran]",% Inhibition Glucocorticold Receptor E^−6,"Table 4′, E^−6",0%
same,% Inhibition Glucocorticold Receptor E^−8,"Table 4′, E^−8",0%
"CC1CCC2(CCC3C4CCc5cc(O)c([N+](=O)[O-])cc5C4CCC32C)OC1=O [EM-1131, 2-Nitro-1,3,5(10)-estratrien-3-ol-17(R)-spiro-2′-(5′-methyl-6′-oxo)tetrahydropyran]",inhibition at 1 µM,"Table 4′, E^−6",0%
same,inhibition at 0.01 µM,"Table 4′, E^−8",0%
CC1(C)CC[C@@]2(CCC3C4CCc5cc(F)ccc5C4CC[C@@]32C)OC1=O (stereo partly shown) [EM-1157-CS],inhibition at 1 µM,"Table 4′, E^−6",0%
same,inhibition at 0.01 µM,"Table 4′, E^−8",1%
CC(=O)O[C@]1(C(=O)N(C)C)CCC2C3C=C(C)C4=CC(=O)CC[C@]4(C)C3CC[C@@]21C (stereo partly shown) [EM-1159],% Inhibition Glucocorticoid Receptor,E^−6,59%
same,% Inhibition Glucocorticoid Receptor,E^−8,8%
CCCCN(C)C(=O)[C@@]1(OC(C)=O)CCC2C3C=C(C)C4=CC(=O)CC[C@]4(C)C3CC[C@@]21C (stereo partly shown) [EM-1165],% Inhibition Glucocorticoid Receptor,E^−6,26%
same,% Inhibition Glucocorticoid Receptor,E^−8,0%
CC12CCC3c4ccc(F)cc4CCC3C1CCC21CCCC(=O)O1 (stereo not shown) [EM-1170-CS],inhibition at 1 µM,"Table 4′, E^−6",3%
same,inhibition at 0.01 µM,"Table 4′, E^−8",4%
CCC[C@]1(F)CC2C3C=CC4=CC(=O)CC[C@]4(C)C3CC[C@]2(C)C1=O (stereo partly shown) [EM-1183],% Inhibition Glucocorticoid Receptor E^−6,E^−6,12%
same,% Inhibition Glucocorticoid Receptor E^−8,E^−8,0%
CC(=O)[C@@]1(OC(=O)CCCCF)CCC2C3C=C(C)C4=CC(=O)CC[C@]4(C)C3CC[C@@]21C (stereo partly shown) [EM-1195-CS],% Inhibition Glucocorticoid Receptor,E^−6,90%
same,% Inhibition Glucocorticoid Receptor,E^−8,3%
CC(C)C[C@@H]1CC2C3C=CC4=CC(=O)CC[C@]4(C)C3CC[C@]2(C)C1=O (stereo partly shown) [EM-1273-CS],% Inhibition Glucocorticoid Receptor E^−6,E^−6,1%
same,% Inhibition Glucocorticoid Receptor E^−8,E^−8,0%
COc1ccc(CC(=O)O[C@]2(C(C)=O)CCC3C4C=C(C)C5=CC(=O)C=C[C@]5(C)C4CC[C@@]32C)cc1 (stereo partly shown) [EM-1291],% Inhibition Glucocorticoid Receptor,E^−6,69%
same,% Inhibition Glucocorticoid Receptor,E^−8,1%
"C[C@]12CCC(=O)C=C1C=C[C@@H]1[C@@H]2CC[C@]2(C)C(=O)C3(CC4CC4C3)C[C@@H]12 (stereo partly shown) [EM-1299, 4,6-Androstadien-3,17-dione-16-spirobicyclo[3′.1′.0′]-hexane]",% Inhibition Glucocorticoid Receptor E^−6,E^−6,0%
same,% Inhibition Glucocorticoid Receptor E^−8,E^−8,0%
CCS(=O)(=O)Oc1ccc2c(c1)CCC1C2CCC2(C)C1CCC21CCC(C)(C)C(=O)O1 (stereo not shown) [EM-1364-CS],inhibition at 1 µM,"Table 4′, E^−6",3%
same,inhibition at 0.01 µM,"Table 4′, E^−8",0%
CC1(C)CCC2(CCC3C4CCc5cc(OS(C)(=O)=O)ccc5C4CCC32C)OC1=O (stereo not shown) [EM-1365-CS],inhibition at 1 µM,"Table 4′, E^−6",5%
same,inhibition at 0.01 µM,"Table 4′, E^−8",0%
"COCCOc1ccc2c(c1)CCC1C2CCC2(C)C1CCC21CCC(C)(C)C(=O)O1 [EM-1368-CS, 3-Methoxyethoxy-1,3,5(10)-estratrien-17(R)-spiro-2′-(5′,5′-dimethyl-6′-oxo)-tetrahydropyran]",inhibition at 1 µM,"Table 4′, E^−6",3%
same,inhibition at 0.01 µM,"Table 4′, E^−8",3%
"CCOc1ccc2c(c1)CCC1C2CC[C@@]2(C)C1CC[C@@]21CCC(C)(C)C(=O)O1 (stereo partly drawn) [EM-1369, 3-Ethoxy-1,3,5(10)-estratrien-17(R)-spiro-2′-(5′,5′-dimethyl-6′-oxo)-tetrahydropyran]",inhibition at 1 µM,"Table 4′, E^−6",2%
same,inhibition at 0.01 µM,"Table 4′, E^−8",1%
COc1ccc2c(c1)CCC1C2CCC2(C)C1CCC21CCC(C)(C)C(=O)O1 (stereo not shown) [EM-1370],inhibition at 1 µM,"Table 4′, E^−6",0%
same,inhibition at 0.01 µM,"Table 4′, E^−8",3%
COCCOc1cc2c(cc1Cl)C1CCC3(C)C(CCC34CCC(C)(C)C(=O)O4)C1CC2 (stereo not shown) [EM-1371-CS],inhibition at 1 µM,"Table 4′, E^−6",0%
same,inhibition at 0.01 µM,"Table 4′, E^−8",1%
CC1(C)CC[C@@]2(CC[C@H]3[C@@H]4CCc5c(cc(Br)c(O)c5Br)[C@H]4CC[C@@]32C)OC1=O [EM-1382-CS],% Inhibition Glucocorticold Receptor E^−6,"Table 4′, E^−6",4%
same,% Inhibition Glucocorticold Receptor E^−8,"Table 4′, E^−8",2%
COc1c(Br)cc2c(c1Br)CCC1C2CCC2(C)C1CCC21CCC(C)(C)C(=O)O1 (stereo not shown) [EM-1385-CS],inhibition at 1 µM,"Table 4′, E^−6",5%
same,inhibition at 0.01 µM,"Table 4′, E^−8",0%
COc1ccc2c(c1)C(=O)CC1C3CCC4(CCC(C)(C)C(=O)O4)C3(C)CCC21O (stereo not shown) [EM-1386],inhibition at 1 µM,"Table 4′, E^−6",0%
same,inhibition at 0.01 µM,"Table 4′, E^−8",3%
CN(C)CCOc1ccc2c(c1)CCC1C2CCC2(C)C1CCC21CCC(C)(C)C(=O)O1 (stereo not shown) [EM-1389-CS],inhibition at 1 µM,"Table 4′, E^−6",3%
same,inhibition at 0.01 µM,"Table 4′, E^−8",0%
